# Entries after “also recorded” stand apart in the source; their conditions may differ. Where two headings read alike, the source gives them in different places. Positions of bridges follow the written chain, without caps; N, C: chain ends. Non-standard residues stand in square brackets, D forms with d. Residues, ends and D or L forms follow the SMILES beside them. Chains are numbered I, II in the order given. No end group written: not given here. Ac6c = NC1(C(=O)O)CCCCC1; Dab = NCC[C@H](N)C(=O)O; Nva = CCC[C@H](N)C(=O)O
# B1: adiponectin protein: full-sized adiponectin protein, 244 amino acid cytokine (protein, UniProt Q15848 1-244, looked up)
# chain: MLLLGAVLLLLALPGHDQETTTQGPGVLLPLPKGACTGWMAGIPGHPGHNGAPGRDGRDGTPGEKGEKGDPGLIGPKGDIGETGVPGAEGPRGFPGIQGRKGEPGEGAYVYRSAFSVGLETYVTIPNMPIRFTKIFYNQQNHYDGSTGKFHCNIPGLYYFAYHITVYMKDVKVSLFKKDKAMLFTYDQYQENNVDQASGSVLLHLEVGDQVWLQVYGEGERNGLYADNDNDSTFTGFLLYHDTN
# modifications: full-length
# notes: full-sized adiponectin protein, 244 amino acid cytokine
# Columns and labels:
# MCF-7 cells = assay: Agonistic activity screening of targeted peptide library in MCF-7 cells; type: cell-based; conditions: biological activity screening in MCF-7 cells, targeted agonist library
# From the text: Based on the success of our first-in-class AdipoR agonist ADP355 and recognizing the need for a similar AdipoR antagonist, we modified the composition of ADP355 to attenuate AdipoR functions and signaling. The starting point of the design was the activity of the 396-member peptide library we made earlier and from which the ADP355 agonist was selected, and a new central hexamer named peptide 3–8 (Table 2). […] While Pro1 in the C-terminal octamer (Pro3 in ADP355) is replaceable, Gly2, Tyr4, Phe6, Ala7, and DSer8 should be kept for binding. Because Nva3 recovers activation, Leu, the original amino acid in native adiponectin, should be used in this position. […] In the new antagonist Pro1 was replaced with 1-amino-cyclohexane carboxylic acid (Chex1), extremely useful as an N-terminal cyclic aliphatic amino acid mimic in designer antibacterial peptides (Cudic et al., [2002]). These considerations led to derivative 400 (ADP400), H-Chex-Gly-Leu-Tyr-DSer-Phe-Ala-DSer-NH2 (we called it Chex-DSer-8), as a potential AdipoR antagonist (Tables 1, 2).
# Serum stability = type: in vitro ADME; conditions: undiluted pooled mouse serum, RP-HPLC at 214 nm, triplicate; for half-life at 0.075 mg/mL: 10 μL of 3 mg/mL peptide in 390 μL serum, 37°C, 0, 30, 120, 240 min, TCA precipitation
# Protocol: (§1) For serum stability studies (Powell et al., [1993]) 10 μL of an aqueous peptide stock solution (3 mg/mL) was added to 390 μL pooled mouse serum in triplicate. The peptide-serum mixtures were thermostated at 37°C. After 0, 30, 120, and 240 min, 95 μL aliquots were mixed with 25 μL trichloroacetic acid (15%, w/v) and incubated for 10 min on ice. The precipitated proteins were separated by centrifugation (5 min, 12,000 × g, Eppendorf MiniSpin). The supernatant (90 μL) was neutralized with 8.5 μL aqueous sodium hydroxide solution (1 M) and mixed with 3% aqueous acetonitrile containing 0.1% TFA (121.5 μL). After centrifugation (5 min, 12,000 × g, Eppendorf MiniSpin) a 100 μL solution was analyzed by RP-HPLC using a Jupiter C18 column (2.0 mm inner diameter, 150 mm length, 5 μm particle size, 30 nm pore size; Phenomenex, Torrance) on a Beckman Gold HPLC System at 60°C. The gradient from 0.1% TFA in water (eluent A) to 60% acetonitrile in 0.1% aqueous TFA (eluent B) was developed using 1% B/min and the amide bond was monitored at 214 nm.
# [1] = test system: K562 chronic myeloid leukemia (CML) cells; assay: K562 CML cell proliferation, 3-day growth inhibition by cell count; type: cell-based, human
# Protocol: (§2) MCF-7 BC and K562 chronic myeloid leukemia (CML) cells were grown in standard RPMI 1640 medium. Seventy-five thousand MCF-7 and 100,000 K-562 cells grown in RPMI 1640 medium containing 10% fetal bovine serum (FBS, for MCF-7) or 0.5% bovine serum albumin (BSA, for K562) were seeded into wells of 24-well culture plates. After 24 h, MCF-7 cells were shifted to K562 medium (serum free). After an additional 24 h, the cultures were treated with various concentrations of peptides or a mixture of peptides for 72 h and counted. The assays were done in triplicates and repeated twice from different cell preparations. The cell numbers were expressed as means ± standard error (SE). Statistical analysis was done with a SlideWrite graphical software package (Encinitas, USA).
# normal mice = conditions: up to a 10 mg/kg bolus intraperitoneal (ip) dose; ref Otvos et al., 2011a; cited from earlier work
# From the text: In 2011 we reported on the identification of the adiponectin active site and the design and functional characterization of adiponectin-based peptide compounds for the activation of AdipoR using glioma and breast cancer (BC) model systems (Otvos et al., [2011a]). The lead peptide, the 10-mer ADP355, primarily acts through AdipoR1 and induces typical adiponectin signaling pathways in cancer cells (Otvos et al., [2011a]).
# [2] = estimated from degradation kinetics in diluted mouse serum; ref Otvos et al., 2011a; cited from earlier work
# From the text: Peptide ADP355 (355) is remarkably stable in mouse serum (Otvos et al., [2011a]). […] This stability level is quite high among peptide therapeutics, and is li ...
# MCF-7 BC cells [3] = assay: MCF-7 BC cell proliferation, 3-day growth inhibition/promotion by cell count; type: cell-based
# Protocol: as §2
# MCF-7 BC cells [4] = conditions: ADP400 100 nM with ADP355 100 nM; p = 0.003
# pooled mouse serum = conditions: 37°C, up to 240 min
# [5] = Aggregation / precipitation observed during assays; type: physicochemical; conditions: during serum stability assay procedure (mouse serum, TCA precipitation) or under the authors' experimental conditions
# Protocol: as §1
# [6] = test system: K562 chronic myeloid leukemia (CML) cells; conditions: compared to unrelated human serum albumin; ref Yokota et al., 2000; cited from earlier work
# From the text: The cellular models used here were selected among those known to express AdipoR, involve adiponectin in biological responses and yield reproducible results in our hands. Adiponectin protein has been linked to leukemia, lymphoma, and myeloma in individuals with above-average BMI (Obeid and Hebbard, [2012]). Human-origin K562 CML cells express both AdipoR forms although at relatively low levels (Ozturk et al., [2012]).
molecule,measurement,setting,value
"HCN[Nva]PGLYYF [compound 156, member of targeted agonist library]",Agonistic activity,MCF-7 cells,None
CCC[C@H](NC(=O)[C@@H]1CCCN1C(=O)[C@@H](NC(=O)[C@H](N)CC(N)=O)[C@@H](C)CC)C(=O)N[C@@H](CC(C)C)C(=O)N[C@@H](Cc1ccc(O)cc1)C(=O)N[C@H](CO)C(=O)N[C@@H](Cc1ccccc1)C(=O)N[C@@H](C)C(=O)N[C@H](CO)C(=O)N[C@@H](Cc1c[nH]cn1)C(=O)N1CCC[C@H]1C(=O)NCC[C@H](NC(=O)[C@@H]1CCCN1C(=O)[C@H](Cc1c[nH]cn1)NC(=O)[C@@H](CO)NC(=O)[C@H](C)NC(=O)[C@H](Cc1ccccc1)NC(=O)[C@@H](CO)NC(=O)[C@H](Cc1ccc(O)cc1)NC(=O)[C@H](CC(C)C)NC(=O)[C@H](CCC)NC(=O)[C@@H]1CCCN1C(=O)[C@@H](NC(=O)[C@H](N)CC(N)=O)[C@@H](C)CC)C(N)=O [ADP399] (I: H-[dN]IP[Nva]LY[dS]FA[dS]HP[Dab]-NH2 / II: H-[dN]IP[Nva]LY[dS]FA[dS]HP; amide I:13-II:C),half-life at 0.075 mg/mL,Serum stability,0.917 h
same,"remaining at 2 h, 0.075 mg/mL","Serum stability; 37°C, 2 h, read-out: intact peptide still present after 2 h incubation",16%
"[dN]IPGLYGFA[dS] [compound 91, member of targeted agonist library]",Agonistic activity,MCF-7 cells,Normal
CCC[C@H](NC(=O)[C@@H]1CCCN1C(=O)[C@@H](NC(=O)[C@H](N)CC(N)=O)[C@@H](C)CC)C(=O)N[C@@H](CC(C)C)C(=O)N[C@@H](Cc1ccc(O)cc1)C(=O)N[C@H](CO)C(=O)N[C@@H](Cc1ccccc1)C(=O)N[C@@H](C)C(=O)N[C@H](CO)C(N)=O [ADP355] (H-[dN]IP[Nva]LY[dS]FA[dS]-NH2),IC50,"[1]; K562, 72 h treatment, 10 nM–10 μM peptide, first assay, IC50 halfway between uninhibited growth and maximal growth inhibition, read-out: relative IC50, inhibition of K562 proliferation",200 nM
same,half-life at 0.075 mg/mL,Serum stability,3 h
same,toxic properties to normal mice,normal mice,no toxic properties
same,half-life in whole plasma (estimated),[2],1.25 h
"PGL[dS]YF[Nva]YHI [compound 290, member of targeted agonist library]",Agonistic activity,MCF-7 cells,None
CC(C)C[C@H](NC(=O)CNC(=O)C1(N)CCCCC1)C(=O)N[C@@H](Cc1ccc(O)cc1)C(=O)N[C@H](CO)C(=O)N[C@@H](Cc1ccccc1)C(=O)N[C@@H](C)C(=O)N[C@H](CO)C(N)=O [ADP400] (H-[Ac6c]GLY[dS]FA[dS]-NH2),effect on MCF-7 cell growth without ADP355 present,"MCF-7 BC cells [3]; 100 nM, alone, compared with co-treatment, which reached the growth level of 10 nM leptin",promoted cell growth to an identical degree
same,effect on ADP355-induced MCF-7 growth inhibition,MCF-7 BC cells [4],completely ameliorated
(H-DAsn-Ile-Pro-Nva-Leu-Tyr-DSer-Phe-Ala-DSer-His-Pro)2-Dab-NH2 (branched),cleaved bond,pooled mouse serum,Leu-Tyr; also recorded: Tyr-DSer
"leptin: Leptin protein, positive control for exogenous mitogen actions [reference compound]",promotion of MCF-7 cell growth,"MCF-7 BC cells [3]; 10 nM, positive control for exogenous mitogen",10%
"PGLYYFAYHI [compound 26, member of targeted agonist library]",Agonistic activity,MCF-7 cells,Normal
"NIPGLY[dS]FAY [compound 223, member of targeted agonist library]",Agonistic activity,MCF-7 cells,Weakest among P25 analogs
"HCN[Nva]PG[Nva]YYF [compound 288, member of targeted agonist library]",Agonistic activity,MCF-7 cells,Reduced
"PGLYYF [3–8, new central hexamer]",Agonistic activity,MCF-7 cells,None
"HCNIPGLYYF [compound 24, member of targeted agonist library]",Agonistic activity,MCF-7 cells,Normal
CCC[C@@H]1NC(=O)[C@@H]2CCCN2C(=O)[C@H]([C@@H](C)CC)NC(=O)[C@@H](CC(N)=O)NC(=O)[C@H](CC(=O)O)NC(=O)[C@H](Cc2c[nH]cn2)NC(=O)[C@@H](CO)NC(=O)[C@H](C)NC(=O)[C@H](Cc2ccccc2)NC(=O)[C@@H](CO)NC(=O)[C@H](Cc2ccc(O)cc2)NC(=O)[C@H](CC(C)C)NC(=O)[C@H](CCC)NC(=O)[C@@H]2CCCN2C(=O)[C@H]([C@@H](C)CC)NC(=O)[C@@H](CC(N)=O)NC(=O)[C@@H]2CCCN2C(=O)[C@H](Cc2c[nH]cn2)NC(=O)[C@@H](CO)NC(=O)[C@H](C)NC(=O)[C@H](Cc2ccccc2)NC(=O)[C@@H](CO)NC(=O)[C@H](Cc2ccc(O)cc2)NC(=O)[C@H](CC(C)C)NC1=O [compound 398],IC50,[1]; 72 h,300 nM
same,concentration of maximal effect on K562 proliferation,"[1]; K562, 3-day assay",1 µM
same,aggregation / precipitation,[5],did aggregate during the serum stability assay
same,aggregation / precipitation,[5]; listed as cyclic dimer,precipitated during the assay procedure
"NIP[Nva]LYYFAY [compound 157, member of targeted agonist library]",Agonistic activity,MCF-7 cells,Increased
NIPGLYYFAY [compound 25],Agonistic activity,MCF-7 cells,Normal
B1,inhibition of relative proliferation rate of K562 cells,[6],9%
